From ChEMBL document CHEMBL1138190, “Synthesis and antibacterial activity of novel C12 vinyl ketolides” (J Med Chem, 2006)
The source made the active and inactive calls.

Legend:
Streptococcus pneumoniae [1] = experiment: Antibacterial activity against Streptococcus pneumoniae Erm 7985; format: functional
Streptococcus pneumoniae [2] = experiment: Antibacterial activity against Streptococcus pneumoniae Erm 8339; format: functional
Streptococcus pneumoniae [3] = experiment: Antibacterial activity against Streptococcus pneumoniae Erm 8919; format: functional
Streptococcus pneumoniae [4] = experiment: Antibacterial activity against Streptococcus pneumoniae Erm S 4085; format: functional
Streptococcus pneumoniae [5] = experiment: Antibacterial activity against Streptococcus pneumoniae Erm 3120; format: functional
Streptococcus pneumoniae [6] = experiment: Antibacterial activity against Streptococcus pneumoniae Erm 2218; format: functional
[7] = Lung-to-plasma AUC ratio in Sprague-Dawley rat at 5 mg/kg, iv; format: ADME, organism-based; set-up: dose 5 mg/kg, route intravenous; details: lung and plasma
Streptococcus pneumoniae [8] = experiment: Antibacterial activity against Streptococcus pneumoniae 280-962; format: functional
Streptococcus pneumoniae [9] = experiment: Antibacterial activity against Streptococcus pneumoniae Mef 9959; format: functional
Staphylococcus aureus [10] = experiment: Antibacterial activity against Staphylococcus aureus 33591; format: functional
Streptococcus pneumoniae [11] = experiment: Antibacterial activity against Streptococcus pneumoniae Erm 867; format: functional
Streptococcus pneumoniae [12] = experiment: Antibacterial activity against Streptococcus pneumoniae Mef 10095; format: functional
Rattus norvegicus [13] = experiment: Efficacy against Haemophilus influenzae in Sprague-Dawley rat lung infection model at 100 mg/kg; format: functional, organism-based; set-up: dose 100 mg/kg
Streptococcus pneumoniae [14] = experiment: Antibacterial activity against Streptococcus pneumoniae Erm S 4297; format: functional
[15] = Clearance in Sprague-Dawley rat at 5 mg/kg, iv and 15 mg/kg, po; format: ADME, organism-based; details: in vivo
Streptococcus pneumoniae [16] = experiment: Antibacterial activity against Streptococcus pneumoniae Mef 5649; format: functional
Streptococcus pneumoniae [17] = experiment: Antibacterial activity against Streptococcus pneumoniae Mef 3449; format: functional
Haemophilus influenzae [18] = experiment: Antibacterial activity against Haemophilus influenzae 49247; format: functional
Streptococcus pneumoniae [19] = experiment: Antibacterial activity against Streptococcus pneumoniae Mef 1566; format: functional
Streptococcus pneumoniae [20] = experiment: Antibacterial activity against Streptococcus pneumoniae Mef 2880; format: functional
Streptococcus pneumoniae [21] = experiment: Antibacterial activity against Streptococcus pneumoniae Erm 6388; format: functional
Streptococcus pneumoniae [22] = experiment: Antibacterial activity against Streptococcus pneumoniae Erm 6849; format: functional
Streptococcus pneumoniae [23] = experiment: Antibacterial activity against Streptococcus pneumoniae Mef 4126; format: functional
Streptococcus pneumoniae [24] = experiment: Antibacterial activity against Streptococcus pneumoniae Mef 1556; format: functional
Streptococcus pneumoniae [25] = experiment: Antibacterial activity against Streptococcus pneumoniae Mef S 3427; format: functional
Streptococcus pneumoniae [26] = experiment: Antibacterial activity against Streptococcus pneumoniae Erm 4589; format: functional
Streptococcus pneumoniae [27] = experiment: Antibacterial activity against Streptococcus pneumoniae Erm 6396; format: functional
Streptococcus pneumoniae [28] = experiment: Antibacterial activity against Streptococcus pneumoniae Erm 4290; format: functional
Streptococcus pneumoniae [29] = experiment: Antibacterial activity against Streptococcus pneumoniae Mef 983; format: functional
Streptococcus pneumoniae [30] = experiment: Antibacterial activity against Streptococcus pneumoniae 297-749; format: functional
Streptococcus pneumoniae [31] = experiment: Antibacterial activity against Streptococcus pneumoniae Erm 5399; format: functional
Streptococcus pneumoniae [32] = experiment: Antibacterial activity against Streptococcus pneumoniae Erm 5554; format: functional
Streptococcus pneumoniae [33] = experiment: Antibacterial activity against Streptococcus pneumoniae Mef 2382; format: functional
[34] = test system: Staphylococcus epidermidis; experiment: Antibacterial activity against Staphylococcus epidermidis f50654; format: functional
Streptococcus pneumoniae [35] = experiment: Antibacterial activity against Streptococcus pneumoniae Mef S 3435; format: functional
Enterococcus faecalis [36] = experiment: Antibacterial activity against Enterococcus faecalis bc11148-2; format: functional
Streptococcus pneumoniae [37] = experiment: Antibacterial activity against Streptococcus pneumoniae Erm 8947; format: functional
Streptococcus pneumoniae [38] = experiment: Antibacterial activity against Streptococcus pneumoniae Mef 6966; format: functional
Streptococcus pneumoniae [39] = experiment: Antibacterial activity against Streptococcus pneumoniae 49619; format: functional
Staphylococcus aureus [40] = experiment: Antibacterial activity against Staphylococcus aureus 29213; format: functional
Rattus norvegicus [41] = experiment: Efficacy against Streptococcus pneumoniae Mef in Sprague-Dawley rat lung infection model at 100 mg/kg; format: functional, organism-based; set-up: dose 100 mg/kg
Streptococcus pneumoniae [42] = experiment: Antibacterial activity against Streptococcus pneumoniae Mef 4331; format: functional
Streptococcus pneumoniae [43] = experiment: Antibacterial activity against Streptococcus pneumoniae Erm 10279; format: functional
[44] = Lung half life in Sprague-Dawley rat at 15 mg/kg, po; format: ADME, organism-based; set-up: dose 15 mg/kg, route oral
Streptococcus pneumoniae [45] = experiment: Antibacterial activity against Streptococcus pneumoniae Mef 1790; format: functional
[46] = Volume of distribution in Sprague-Dawley rat at 5 mg/kg, iv and 15 mg/kg, po; format: ADME, organism-based; details: in vivo, read-out: Vdss
Streptococcus pneumoniae [47] = experiment: Antibacterial activity against Streptococcus pneumoniae Mef 3855; format: functional
Streptococcus pneumoniae [48] = experiment: Antibacterial activity against Streptococcus pneumoniae Erm 8257; format: functional
Streptococcus pneumoniae [49] = experiment: Antibacterial activity against Streptococcus pneumoniae Mef 953; format: functional
Streptococcus pneumoniae [50] = experiment: Antibacterial activity against Streptococcus pneumoniae Erm 5590; format: functional
Streptococcus pyogenes = experiment: Antibacterial activity against Streptococcus pyogenes 8668; format: functional
Enterococcus faecalis [51] = experiment: Antibacterial activity against Enterococcus faecalis 29212; format: functional
Haemophilus influenzae [52] = experiment: Antibacterial activity against Haemophilus influenzae 2762; format: functional
Streptococcus pneumoniae [53] = experiment: Antibacterial activity against Streptococcus pneumoniae Mef 9142; format: functional
[54] = test system: Staphylococcus epidermidis; experiment: Antibacterial activity against Staphylococcus epidermidis 14990; format: functional
Streptococcus pneumoniae [55] = experiment: Antibacterial activity against Streptococcus pneumoniae Erm 5354; format: functional
Streptococcus pneumoniae [56] = experiment: Antibacterial activity against Streptococcus pneumoniae Mef 41; format: functional
Streptococcus pneumoniae [57] = experiment: Antibacterial activity against Streptococcus pneumoniae Mef 5654; format: functional
[58] = Oral bioavailability in Sprague-Dawley rat at 100 mg/kg, po; format: ADME, organism-based; details: in vivo
Rattus norvegicus [59] = experiment: Efficacy against Streptococcus pneumoniae Erm in Sprague-Dawley rat lung infection model at 100 mg/kg; format: functional, organism-based; set-up: dose 100 mg/kg
Streptococcus pneumoniae [60] = experiment: Antibacterial activity against Streptococcus pneumoniae Erm 5415; format: functional

CC[C@H]1OC(=O)[C@H](C)C(=O)[C@H](C)[C@@H](O[C@@H]2O[C@H](C)C[C@H](N(C)C)[C@H]2O)[C@](C)(OC)C[C@@H](C)C(=O)[C@H](C)[C@H]2N(CCCCn3cnc(-c4cccnc4)c3)C(=O)O[C@]12C [TELITHROMYCIN]
0.13 µg/mL: MIC (Streptococcus pneumoniae [20]) | MIC (Streptococcus pneumoniae [24]) | MIC (Streptococcus pneumoniae [25]) | MIC (Streptococcus pneumoniae [49]) | MIC (Streptococcus pneumoniae [56])
0.25 µg/mL: MIC (Streptococcus pneumoniae [9]) | MIC (Streptococcus pneumoniae [17]) | MIC (Streptococcus pneumoniae [33]) | MIC (Streptococcus pneumoniae [38]) | MIC (Streptococcus pneumoniae [47])
84%: bioavailability [58]
3.13 µg/mL: MIC (Haemophilus influenzae [18])
0.06 µg/mL: MIC (Streptococcus pneumoniae [12]) | MIC (Streptococcus pneumoniae [23]) | MIC (Streptococcus pneumoniae [35])
0.1 µg/mL: MIC (Streptococcus pneumoniae [5]) | MIC (Streptococcus pneumoniae [14]) | MIC (Streptococcus pneumoniae [27]) | MIC [34] | MIC (Streptococcus pneumoniae [37]) | MIC (Staphylococcus aureus [40]) | MIC [54]
100 mL/min/kg: clearance [15]
0.2 µg/mL: MIC (Streptococcus pneumoniae [22]) | MIC (Streptococcus pneumoniae [32])
16: Kp [7]
5 L/kg: Vd [46]
0.78 µg/mL: MIC (Streptococcus pneumoniae [2]) | MIC (Streptococcus pneumoniae [21])
≤ 0.013 µg/mL: MIC (Streptococcus pneumoniae [1]) | MIC (Streptococcus pneumoniae [4]) | MIC (Streptococcus pneumoniae [28]) | MIC (Streptococcus pneumoniae [31]) | MIC (Streptococcus pneumoniae [48]) | MIC (Streptococcus pneumoniae [50])
inactive: Activity (Rattus norvegicus [13]) | Activity (Rattus norvegicus [41]) | Activity (Rattus norvegicus [59])
> 50 µg/mL: MIC (Staphylococcus aureus [10])
78 min: half-life [44]
≤ 0.05 µg/mL: MIC (Streptococcus pneumoniae [8]) | MIC (Streptococcus pneumoniae [30]) | MIC (Streptococcus pneumoniae [39]) | MIC (Streptococcus pyogenes) | MIC (Enterococcus faecalis [51])
1 µg/mL: MIC (Streptococcus pneumoniae [42])
0.025 µg/mL: MIC (Streptococcus pneumoniae [3]) | MIC (Streptococcus pneumoniae [6]) | MIC (Streptococcus pneumoniae [11]) | MIC (Streptococcus pneumoniae [26]) | MIC (Streptococcus pneumoniae [43]) | MIC (Streptococcus pneumoniae [55]) | MIC (Streptococcus pneumoniae [60])
0.5 µg/mL: MIC (Streptococcus pneumoniae [16]) | MIC (Streptococcus pneumoniae [19]) | MIC (Streptococcus pneumoniae [29]) | MIC (Streptococcus pneumoniae [45]) | MIC (Streptococcus pneumoniae [53]) | MIC (Streptococcus pneumoniae [57])
0.4 µg/mL: MIC (Enterococcus faecalis [36]) | MIC (Haemophilus influenzae [52])
